US20230123334A1, “AMINO LIPID COMPOUND, PREPARATION METHOD THEREFOR, AND APPLICATION THEREOF” (SHENZHEN SHENXIN BIOTECHNOLOGY CO., LTD., priority 2020, published 2023)

What was measured:
Format in all cases: cell-based
Hela cells [1] = assay: Transfection of Hela cell line, DNA vectors; settings: 75 ng plasmid DNA, GFP cells / total cells
Protocol: 1. The compound (0.01 mmol) prepared in Example 1 was dissolved in 1 mL of anhydrous ethanol. After ultrasonically dissolved, 10 μL of the resultant amino lipid solution in ethanol was taken and mixed with 5 μL of DOPE solution in ethanol (0.01 m), and then to the obtained mixture was added 35 μL of 0.2M sodium acetate buffer (pH 5.6), and 50 μL of liposome solution was prepared by vortex at a constant rotating speed for 30 s. 4 μL was taken from the 50 μL liposome solution and added to 46 μL of 0.02M sodium acetate buffer (pH 5.6), and the final liposome solution was formed by vortex at a constant rotating speed for 30 s. 5 μL was taken from the final liposome solution and mixed with 75 ng plasmid DNA (psin-EGFP-IRES-Puro, Clontech) dissolved in 5 μL of 0.02 M sodium acetate buffer, and was allowed to stay at room temperature for 30 min to form a lipid/DNA transfection complex.
2. 10 μL of the lipid/DNA transfection complex was incubated at room temperature for 30 min, followed by addition of 90 μL of fresh resuspended cells (3-5×10^4 cells) and mixing with a pipette. 100 μL of cells+lipid/DNA complex was transferred to separate wells of a 96-well culture plate immediately, and placed in an incubator containing 5% CO2 at 37° C.
3. Hoechst33258 (Invitrogen) was added at a final concentration of 0.2 μg/mL to the cells 20 to 24 hours after initial cell transfection, and cultured in darkness at 37° C. for 15 min. Afterwards, the cells were washed once with a PBS solution, and then added with medium for culture for 20 to 24 h.
4. The cells were placed in a high-throughput confocal microscope (Molecular Devices ImageXpress), and four visual fields of the image of the cells were captured for each well, and images at three laser wavelengths were captured for each sample: bright field images of cells (FIG. 2(a) and FIG. 2(b)), Hoechst-staining images showing total nuclei (FIG. 2(c) and FIG. 2(d)) and GFP images showing success in transfection with the plasmid DNA and the expression of GFP (FIG. 2(e) and FIG. 2(f)). MetaXpress software was used to separately count the cells in the Hoechst-staining images and GFP images, and then the number of cells expressing GFP was divided by the total number of nuclei to give the absolute cell transfection efficiency. The absolute transfection efficiency was calculated as follows: […]
(§1) Cell line: Hela cells (ATCC 35241)
(§2) Medium: DMEM supplemented with 10% fetal bovine serum (Invitrogen)
(§3) Screening: cell transfection on 96-well plates
Detection (readout): percentage of the number of GFP fluorescent cells relative to the total number of cells (the total number of cells was determined using nucleus dye Hoechst). Lipofectamine2000 (Invitrogen) was used as the positive control, according to the manufacturer's instructions.
(§4) Method: the experimental method was basically the same with Example 4.

MCF7 cells [2] = assay: Transfection of MCF7 cell line, mRNA vectors; settings: 50 ng EGFP mRNA per well
Protocol: (§5) Cell line: MCF7 cells (ATCC HTB-22)
Medium: DMEM supplemented with 10 fetal bovine serum (Invitrogen)
as §3
Detection (readout): percentage of the number of GFP fluorescent cells relative to the total number of cells (the total number of cells was determined using nucleus dye Hoechst). Lipofectamine2000 (Invitrogen) was used as the positive control.
Method: the experimental method was basically the same with Example 4, and the mass of EGFP mRNA (TriLink) for transfection was 50 ng per well.

Hela cells [3] = assay: Transfection of Hela cell line, mRNA vectors; settings: 50 ng EGFP mRNA per well
Protocol: as §1, §2, §3
Detection (readout): percentage of the number of GFP fluorescent cells relative to the total number of cells (the total number of cells was determined using nucleus dye Hoechst). A commercially available liposome transfection reagent Lipofectamine2000 (Invitrogen) was used as the positive control group, according to the manufacturer's instructions.
Method: the experimental method was basically the same with Example 4, and the mass of EGFP mRNA for transfection was 50 ng per well.

MCF7 cells [4] = assay: Transfection of MCF7 cell line, DNA vectors; parameters: concentration or dose not given beside the values; settings: plasmid DNA, GFP cells / total cells
Protocol: as §5
Medium DMEM supplemented with […] fetal bovine serum
as §3
Detection (readout): percentage of the number of GFP fluorescent cells relative to the total number of cells (the total number of cells was determined using nucleus dye Hoechst). Lipofectamine2000 was used as the positive control, according to the manufacturer's instructions.
as §4

HEK293 cells [5] = assay: Preliminary screening as mRNA vectors, EGFP mRNA transfection of HEK293 cells; settings: HEK293 cells, 96-well plates, EGFP mRNA 50 ng per well; percentage of GFP fluorescent cells relative to total number of cells (Hoechst)
Summary of the method: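 Each well of HEK293 cells received 50 ng of EGFP mRNA. Efficiency was expressed as percent GFP-expressing cells over Hoechst-defined total cell number.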

HEK293 cells [6] = assay: Preliminary screening as DNA vectors, GFP transfection of HEK293 cells; settings: HEK293 cells; lipid/DOPE liposome with 75 ng plasmid DNA (psin-EGFP-IRES-Puro); number of cells expressing GFP divided by total number of nuclei (Hoechst)
Summary of the method: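 Lipid + DOPE liposomes (NaOAc, pH 5.6) complexed w/ 75 ng psin-EGFP-IRES-Puro, 30 min RT; added to 3-5×10^4 HEK293/well, 37° C. Hoechst 0.2 μg/mL at 20-24 h, imaged after further 20-24 h. Efficiency = GFP+ cells / total nuclei.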

SMILES | Absolute DNA transfection efficiency in Hela cells (Hela cells [1]) | Absolute mRNA transfection efficiency in MCF7 cells (MCF7 cells [2]) | Absolute mRNA transfection efficiency in Hela cells (Hela cells [3]) | Absolute DNA transfection efficiency in MCF7 cells (MCF7 cells [4]) | Absolute mRNA transfection efficiency in HEK293 cells (HEK293 cells [5]) | Absolute DNA transfection efficiency in HEK293 cells (HEK293 cells [6])
CCCCCCCCCCCSc1nc(NCCN2CCCC2)nc(SCCCCCCC)n1 [Compound S7S11D3] | 4.8% | 6.7% | 4.8% | 6.4% | – | –
CCCCCCCCCCCSc1nc(NCCN2CCN(C)CC2)nc(SCCCCCCC)n1 [Compound S7S11D5] | 16.8% | 16.5% | 16.8% | 23.3% | – | –
CCCCCCCCCCCSc1nc(NCCCN(C)C)nc(SCCCCCCC)n1 [Compound S7S11D6] | 14.5% | 26.1% | 14.5% | 38.1% | – | –
CCCCCCCCCCCSc1nc(NCCCN2CCOCC2)nc(SCCCCCCC)n1 [Compound S7S11D8] | 5.6% | 1.5% | 5.6% | 12.9% | – | –
CCCCCCCCCCCSc1nc(NCCCN2CCN(C)CC2)nc(SCCCCCCC)n1 [Compound S7S11D9] | 12.9% | 3.6% | 12.9% | 44.5% | – | –
CCCCCCCCCCCSc1nc(NCC2CCN(C)CC2)nc(SCCCCCCC)n1 [Compound S7S11D10] | 19.7% | 22.2% | 19.7% | 33.8% | – | –
CCCCCCCCCCCCSc1nc(NCCN2CCCC2)nc(SCCCCCCC)n1 [Compound S7S12D3] | 4.9% | 9.4% | 4.9% | 3.0% | – | –
CCCCCCCCCCCCSc1nc(NCCN2CCN(C)CC2)nc(SCCCCCCC)n1 [Compound S7S12D5] | 4.9% | 33.6% | 4.9% | 27.1% | – | –
CCCCCCCCCCCCSc1nc(NCCCN(C)C)nc(SCCCCCCC)n1 [Compound S7S12D6] | 5.8% | 19.1% | 5.8% | 52.1% | – | –
CCCCCCCCCCCCSc1nc(NCCCN2CCOCC2)nc(SCCCCCCC)n1 [Compound S7S12D8] | 5.4% | 24.0% | 5.4% | 11.5% | – | –
CCCCCCCCCCCCSc1nc(NCCCN2CCN(C)CC2)nc(SCCCCCCC)n1 [Compound S7S12D9] | 2.9% | 21.2% | 2.9% | 14.6% | – | –
CCCCCCCCCCCCSc1nc(NCC2CCN(C)CC2)nc(SCCCCCCC)n1 [Compound S7S12D10] | 10.6% | 47.5% | 10.6% | 44.7% | – | –
CCCCCCCCCCCCNc1nc(NCCN2CCCC2)nc(SCCCCCCCC)n1 [Compound S8N12D3] | 8.8% | 20.7% | 8.9% | 13.7% | – | –
CCCCCCCCCCCCNc1nc(NCCN2CCN(C)CC2)nc(SCCCCCCCC)n1 [Compound S8N12D5] | 20.8% | 19.7% | 20.8% | 29.2% | – | –
CCCCCCCCCCCCNc1nc(NCCCN(C)C)nc(SCCCCCCCC)n1 [Compound S8N12D6] | 39.3% | 22.5% | 39.3% | 25.5% | – | –
CCCCCCCCCCCCCCCCSc1nc(NCCN(C)C)nc(SCCCCCCCCC)n1 [Compound S9S16D1] | 0.0% | – | 0.0% | – | 0.0% | 0.0%
CCCCCCCCCCCCCCCCSc1nc(NCCN2CCOCC2)nc(SCCCCCCCCC)n1 [Compound S9S16D2] | 0.7% | – | 0.7% | – | 0.0% | 1.5%
CCCCCCCCCCCCCCCCSc1nc(NCCN2CCCCC2)nc(SCCCCCCCCC)n1 [Compound S9S16D4] | 6.2% | – | 6.2% | – | 1.2% | 12.2%
CCCCCCCCCCCCCCCCSc1nc(NCCN(CC)CC)nc(SCCCCCCCCC)n1 [Compound S9S16D7] | 4.2% | – | 4.2% | – | 1.8% | 8.4%
